According to the CheMixHub viscosity set:
Where “and” joins values, the source holds several entries; their conditions need not be identical. Equal entries are not always repeated.

Experiment: xn = mol fraction of the nth substance listed

C1CCOC1 + CO
Conditions | viscosity
298 K, 101 kPa, x1 = 0.0397 | 0.527 mPa·s
298 K, 101 kPa, x1 = 0.0463 | 0.5241 mPa·s
298 K, 101 kPa, x1 = 0.0629 | 0.5179 mPa·s
298 K, 101 kPa, x1 = 0.0984 | 0.5053 mPa·s
298 K, 101 kPa, x1 = 0.1593 | 0.49 mPa·s
298 K, 101 kPa, x1 = 0.2295 | 0.4758 mPa·s
298 K, 101 kPa, x1 = 0.3081 | 0.463 mPa·s
298 K, 101 kPa, x1 = 0.3952 | 0.4525 mPa·s
298 K, 101 kPa, x1 = 0.5068 | 0.4445 mPa·s
298 K, 101 kPa, x1 = 0.6498 | 0.4398 mPa·s
298 K, 101 kPa, x1 = 0.8052 | 0.4449 mPa·s
298.15 K, 101 kPa, x1 = 0.3 | 0.4761 mPa·s
298.15 K, 101 kPa, x1 = 0.3076 | 0.5025 mPa·s and 0.5015 mPa·s and 0.515 mPa·s
303 K, 101.3 kPa, x1 = 0.0471 | 0.474 mPa·s
303 K, 101.3 kPa, x1 = 0.1 | 0.452 mPa·s
303 K, 101.3 kPa, x1 = 0.1599 | 0.435 mPa·s
303 K, 101.3 kPa, x1 = 0.2285 | 0.406 mPa·s
303 K, 101.3 kPa, x1 = 0.3075 | 0.38 mPa·s
303 K, 101.3 kPa, x1 = 0.3998 | 0.373 mPa·s
303 K, 101.3 kPa, x1 = 0.509 | 0.356 mPa·s
303 K, 101.3 kPa, x1 = 0.6399 | 0.356 mPa·s
303 K, 101.3 kPa, x1 = 0.7995 | 0.384 mPa·s
313 K, 101.3 kPa, x1 = 0.0471 | 0.395 mPa·s
313 K, 101.3 kPa, x1 = 0.1 | 0.36 mPa·s
313 K, 101.3 kPa, x1 = 0.1599 | 0.35 mPa·s
313 K, 101.3 kPa, x1 = 0.2285 | 0.333 mPa·s
313 K, 101.3 kPa, x1 = 0.3075 | 0.31 mPa·s
313 K, 101.3 kPa, x1 = 0.3998 | 0.294 mPa·s
313 K, 101.3 kPa, x1 = 0.509 | 0.3 mPa·s
313 K, 101.3 kPa, x1 = 0.6399 | 0.294 mPa·s
313 K, 101.3 kPa, x1 = 0.7995 | 0.332 mPa·s

CC(C)=O + CO
Conditions | viscosity [mPa·s]
293.15 K, 101 kPa, x1 = 0.025 | 0.563
293.15 K, 101 kPa, x1 = 0.098 | 0.507
293.15 K, 101 kPa, x1 = 0.244 | 0.435
293.15 K, 101 kPa, x1 = 0.385 | 0.389
293.15 K, 101 kPa, x1 = 0.487 | 0.371
293.15 K, 101 kPa, x1 = 0.703 | 0.342
293.15 K, 101 kPa, x1 = 0.865 | 0.333
298.15 K, 101.33 kPa, x1 = 0.059 | 0.4921
298.15 K, 101.33 kPa, x1 = 0.1261 | 0.455
298.15 K, 101.33 kPa, x1 = 0.1889 | 0.4225
298.15 K, 101.33 kPa, x1 = 0.2564 | 0.3965
298.15 K, 101.33 kPa, x1 = 0.3691 | 0.367
298.15 K, 101.33 kPa, x1 = 0.4581 | 0.3458
298.15 K, 101.33 kPa, x1 = 0.558 | 0.3292
298.15 K, 101.33 kPa, x2 = 0.7146 | 0.3932
303.15 K, 101 kPa, x1 = 0.025 | 0.496
303.15 K, 101 kPa, x1 = 0.098 | 0.449
303.15 K, 101 kPa, x1 = 0.244 | 0.389
303.15 K, 101 kPa, x1 = 0.385 | 0.352
303.15 K, 101 kPa, x1 = 0.703 | 0.314
303.15 K, 101 kPa, x1 = 0.865 | 0.308
313.15 K, 101 kPa, x1 = 0.025 | 0.435
313.15 K, 101 kPa, x1 = 0.244 | 0.349
313.15 K, 101 kPa, x1 = 0.385 | 0.322
313.15 K, 101 kPa, x1 = 0.487 | 0.311
313.15 K, 101 kPa, x1 = 0.703 | 0.291
313.15 K, 101 kPa, x1 = 0.865 | 0.287
318.15 K, 101 kPa, x1 = 0.025 | 0.411
318.15 K, 101 kPa, x1 = 0.098 | 0.378
318.15 K, 101 kPa, x1 = 0.244 | 0.335
318.15 K, 101 kPa, x1 = 0.385 | 0.311
318.15 K, 101 kPa, x1 = 0.487 | 0.3
318.15 K, 101 kPa, x1 = 0.703 | 0.282
318.15 K, 101 kPa, x1 = 0.865 | 0.277
323.15 K, 101 kPa, x1 = 0.025 | 0.386
323.15 K, 101 kPa, x1 = 0.098 | 0.362
323.15 K, 101 kPa, x1 = 0.244 | 0.32
